Patent US7939531B2, “Pyrrolopyrazine kinase inhibitors” (Roche Palo Alto, priority 2008, dated 2011)
Structures can show the parent of a compound that is named as a salt.

test system: not given; assay: not given

SMILES	melting point
CCOC(=O)c1cc2cc(C3=C(c4cnc5[nH]cc(C(=O)C(C)(C)C)c5n4)CCC3)ccc2[nH]1 [Compound I-39, 5-{2-[7-(2,2-Dimethyl-propionyl)-5H-pyrrolo[2,3-b]pyrazin-2-yl]-cyclopent-1-enyl}-1H-indole-2-carboxylic acid ethyl ester]	278 to 280 °C
CC1CCCN1c1cc(-c2cnc3[nH]cc(C(=O)C(C)(C)C)c3n2)ccn1 (stereo not drawn) [Compound I-16, 2,2-Dimethyl-1-{2-[2-(2-methyl-pyrrolidin-1-yl)-pyridin-4-yl]-5H-pyrrolo[2,3-b]pyrazin-7-yl}-propan-1-one]	220 to 221 °C
COc1cncc(-c2cnc3[nH]cc(C(=O)C(C)(C)C)c3n2)c1 [Compound I-6, 1-[2-(5-Methoxy-pyridin-3-yl)-5H-pyrrolo[2,3-b]pyrazin-7-yl]-2,2-dimethyl-propan-1-one]	215 to 223.6 °C
CC(C)(C)C(=O)c1c[nH]c2ncc(-n3ccnc3)nc12 [Compound I-107, 1-(2-Imidazol-1-yl-5H-pyrrolo[2,3-b]pyrazin-7-yl)-2,2-dimethyl-propan-1-one]	215 to 217 °C
Cc1nccn1-c1cnc2[nH]cc(C(=O)C(C)(C)C)c2n1 [Compound I-108, 2,2-Dimethyl-1-[2-(2-methyl-imidazol-1-yl)-5H-pyrrolo[2,3-b]pyrazin-7-yl]-propan-1-one]	247 to 249 °C
CCC(CC)NC(=O)c1cc(-c2cnc3[nH]cc(C(=O)C4(C)CCCCC4)c3n2)cs1 (as salt: hydrochloride) [Compound I-43, 4-[7-(1-Methyl-cyclohexanecarbonyl)-5H-pyrrolo[2,3-b]pyrazin-2-yl]-thiophene-2-carboxylic acid (1-ethyl-propyl)-amide]	273 to 275 °C
CCc1nccn1-c1cnc2[nH]cc(C(=O)C(C)(C)C)c2n1 [Compound I-110, 1-[2-(2-Ethyl-imidazol-1-yl)-5H-pyrrolo[2,3-b]pyrazin-7-yl]-2,2-dimethyl-propan-1-one]	276 to 278 °C
CC(C)(C)C(=O)c1c[nH]c2ncc(-c3ccc(C(=O)NC4CCOCC4)s3)nc12 [Compound I-32, 5-[7-(2,2-Dimethyl-propionyl)-5H-pyrrolo[2,3-b]pyrazin-2-yl]-thiophene-2-carboxylic acid (tetrahydro-pyran-4-yl)-amide]	> 300 °C
CC(C)(C)C(=O)c1c[nH]c2ncc(-n3ccc4ccccc43)nc12 [Compound I-97, 1-(2-Indol-1-yl-5H-pyrrolo[2,3-b]pyrazin-7-yl)-2,2-dimethyl-propan-1-one]	205 to 207 °C
CC1=NCCN1c1cnc2[nH]cc(C(=O)C(C)(C)C)c2n1 [Compound I-109, 2,2-Dimethyl-1-[2-(2-methyl-4,5-dihydro-imidazol-1-yl)-5H-pyrrolo[2,3-b]pyrazin-7-yl]-propan-1-one]	235 to 236 °C
CC1(C(=O)c2c[nH]c3ncc(-c4cccs4)nc23)CCCCC1 [Compound I-106, (1-Methyl-cyclohexyl)-(2-thiophen-2-yl-5H-pyrrolo[2,3-b]pyrazin-7-yl)-methanone]	224 to 225 °C
CN(C)C1CCN(c2cc(-c3cnc4[nH]cc(C(=O)C(C)(C)C)c4n3)ccn2)C1 (stereo not drawn) [Compound I-14, 1-{2-[2-(3-Dimethylamino-pyrrolidin-1-yl)-pyridin-4-yl]-5H-pyrrolo[2,3-b]pyrazin-7-yl}-2,2-dimethyl-propan-1-one]	226 to 228 °C
CC(C)NC(=O)c1c[nH]c2ncc(N3CCCC(N(C)C(=O)OC(C)(C)C)C3)nc12 (stereo not drawn) [Compound I-7, [1-(7-Isopropylcarbamoyl-5H-pyrrolo[2,3-b]pyrazin-2-yl)-piperidin-3-yl]-methyl-carbamic acid tert-butyl ester]	251 to 252 °C
CC(=O)N1CCN(c2cc(-c3cnc4[nH]cc(C(=O)C(C)(C)C)c4n3)ccn2)CC1 [Compound I-5, 1-{2-[2-(4-Acetyl-piperazin-1-yl)-pyridin-4-yl]-5H-pyrrolo[2,3-b]pyrazin-7-yl}-2,2-dimethyl-propan-1-one]	257 to 260 °C
CC(C)(C)C(=O)c1c[nH]c2ncc(-c3cn(S(=O)(=O)c4ccccc4)c4ccccc34)nc12 [Compound I-1, 1-[2-(1-Benzenesulfonyl-1H-indol-3-yl)-5H-pyrrolo[2,3-b]pyrazin-7-yl]-2,2-dimethyl-propan-1-one]	267 to 268 °C
CC(C)(C)C(=O)c1c[nH]c2ncc(-c3cn(C4CCCC4)nn3)nc12 [Compound I-12, 1-[2-(1-Cyclopentyl-1H-[1,2,3]triazol-4-yl)-5H-pyrrolo[2,3-b]pyrazin-7-yl]-2,2-dimethyl-propan-1-one]	193.3 to 199.3 °C
CC(C)(C)C(=O)c1c[nH]c2ncc(C3=C(c4ccccc4)CCC3)nc12 [Compound I-38, 2,2-Dimethyl-1-[2-(2-phenyl-cyclopent-1-enyl)-5H-pyrrolo[2,3-b]pyrazin-7-yl]-propan-1-one]	207 to 209 °C
CNC1CCCN(c2cnc3[nH]cc(C(=O)NC(C)C)c3n2)C1 (stereo not drawn) [Compound I-8, 2-(3-Methylamino-piperidin-1-yl)-5H-pyrrolo[2,3-b]pyrazine-7-carboxylic acid isopropylamide; compound with trifluoro-acetic acid]	54 to 64 °C
CC(C)(C)C(=O)c1c[nH]c2ncc(-c3ccc(C(=O)NC4CCCC4)s3)nc12 [Compound I-31, 5-[7-(2,2-Dimethyl-propionyl)-5H-pyrrolo[2,3-b]pyrazin-2-yl]-thiophene-2-carboxylic acid cyclopentylamide]	> 300 °C
CC(C)(C)C(=O)c1c[nH]c2ncc(-c3cn(Cc4ccccc4)nn3)nc12 [Compound I-105, 1-[2-(1-Benzyl-1H-[1,2,3]triazol-4-yl)-5H-pyrrolo[2,3-b]pyrazin-7-yl]-2,2-dimethyl-propan-1-one]	235 to 237 °C
CC(C)(C)C(=O)c1c[nH]c2ncc(-c3ccnc(N4CCSCC4)c3)nc12 [Compound I-15, 2,2-Dimethyl-1-[2-(2-thiomorpholin-4-yl-pyridin-4-yl)-5H-pyrrolo[2,3-b]pyrazin-7-yl]-propan-1-one]	287 to 290 °C
CC(C)(C)C(=O)c1c[nH]c2ncc(-c3cncs3)nc12 [Compound I-121, 2,2-Dimethyl-1-(2-thiazol-5-yl-5H-pyrrolo[2,3-b]pyrazin-7-yl)-propan-1-one]	281 to 282 °C
CC(C)(C)C(=O)c1c[nH]c2ncc(-c3ccnc(N4CCCCC4)c3)nc12 [Compound I-13, 2,2-Dimethyl-1-[2-(3,4,5,6-tetrahydro-2H-[1,2′]bipyridinyl-4′-yl)-5H-pyrrolo[2,3-b]pyrazin-7-yl]-propan-1-one]	250 to 251 °C
CC(C)(C)C(=O)c1c[nH]c2ncc(-c3ccnc(N4CCCC4)c3)nc12 [Compound I-11, 2,2-Dimethyl-1-[2-(2-pyrrolidin-1-yl-pyridin-4-yl)-5H-pyrrolo[2,3-b]pyrazin-7-yl]-propan-1-one]	275.1 to 276.4 °C

biological target: JAK3: Recombinant human kinase domain (Homo sapiens, UniProt P52333); assay: Determination of IC50 of Janus Kinase (JAK) Inhibition (radioactive end-point 33P-ATP kinase assay)
Sequence (P52333 822-1111 limits assumed): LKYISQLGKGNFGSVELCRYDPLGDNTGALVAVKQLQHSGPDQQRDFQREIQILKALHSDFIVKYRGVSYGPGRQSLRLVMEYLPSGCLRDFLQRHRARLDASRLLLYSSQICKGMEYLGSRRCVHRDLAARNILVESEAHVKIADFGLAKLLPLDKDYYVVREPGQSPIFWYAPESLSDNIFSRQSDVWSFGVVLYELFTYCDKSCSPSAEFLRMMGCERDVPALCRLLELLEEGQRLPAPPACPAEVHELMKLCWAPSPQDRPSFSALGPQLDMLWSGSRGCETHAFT
Experimental: Assay conditions used are described below: • Assay Buffer: JAK Kinase Buffer: 50 mM Hepes [pH 7.2], 10 mM MgCl2, 1 mM DTT, 1 mg/ml BSA. The assay is carried out in this buffer. • Assay Format The kinase activity of all three JAK kinases is measured using a radioactive, end-point assay and with trace amounts of ^33P-ATP. The assays are carried out in 96-well polypropylene plates.
All concentrations are final in the reaction mixture and all incubations are carried at room temperature. […] Final concentration of DMSO in the reaction is 10%. • 2) Compounds are preincubated with enzyme (0.5 nM JAK3 (commercially available), 0.2 nM JAK3 (prepared), 1 nM JAK2, 5 nM JAK1) for 10 minutes. • 3) Reactions are initiated by the addition of a cocktail of the two substrates (ATP and peptide premixed in the JAK Kinase Buffer). […] JAK1 assay is carried out at an ATP concentration of 10 uM and a peptide concentration of 50 uM. • 4) The duration of the assay for JAK2 and JAK3 is 20 minutes. JAK1 assay is carried out for 40 minutes. With all three enzymes, reactions are terminated by the addition of 0.5M EDTA to a final concentration of 100 mM. • 5) 25 ul of terminated reactions are transferred to 150 ul of a 7.5% (v/v) slurry of streptavidin-coated sepharose beads in MgCl2- and CaCl2-free 1× Phosphate Buffered Saline containing 50 mM of EDTA in 96-well, 1.2 um MultiScreen-BV filter plates. • 6) After a 30-minute incubation, the beads are washed under vacuum with the following buffers: • a. 3 to 4 washes with 200 ul of 2M NaCl. • b. 3 to 4 washes with 200 ul of 2M NaCl plus 1% (v/v) phosphoric acid. • c. 1 wash with water. • 7) Washed plates are dried in a 60° C. oven for between 1 to 2 hours. • 8) 70 ul of Microscint 20 scintillation fluid is added to each well of filter plates and after at least 30 minutes of incubation, radioactive counts are measured in a Perkinelmer microplate scintillation counter.

SMILES	IC50
CN(CC#N)C(=O)c1cc(-c2cnc3[nH]cc(C(=O)C4(C)CCCCC4)c3n2)cs1 [Compound I-40, 4-[7-(1-Methyl-cyclohexanecarbonyl)-5H-pyrrolo[2,3-b]pyrazin-2-yl]-thiophene-2-carboxylic acid cyanomethyl-methyl-amide]	0.0447 µM
CC1(C(=O)c2c[nH]c3ncc(-c4ccc(C(=O)N5CCC(O)C5)s4)nc23)CCCCC1 (stereo not drawn) [Compound I-74, {2-[5-(3-Hydroxy-pyrrolidine-1-carbonyl)-thiophen-2-yl]-5H-pyrrolo[2,3-b]pyrazin-7-yl}-(1-methyl-cyclohexyl)-methanone]	0.0283 µM
CN(CCO)C(=O)c1ccc(-c2cnc3[nH]cc(C(=O)C4(C)CCCCC4)c3n2)s1 [Compound I-73, 5-[7-(1-Methyl-cyclohexanecarbonyl)-5H-pyrrolo[2,3-b]pyrazin-2-yl]-thiophene-2-carboxylic acid (2-hydroxy-ethyl)-methyl-amide]	0.018 µM
